Laboratory results taken from the kinase profiling compilation of Christmann-Franck et al. (2016).
Values belong to the compound of their own block, whether it stands above or below them.

Columns and labels:
Assay in all cases: radiometric filter-binding kinase assay
[1] = target: PRKCZ (human) (UniProt Q05513)
[2] = target: CHEK1 (human) (UniProt O14757)
[3] = target: PAK4 (human) (UniProt O96013)
[4] = test system: PRKAA1 or PRKAA2 (rat); conditions: accession and sequence are those of the human protein
[5] = target: MAPK13 (human) (UniProt O15264)
[6] = target: MST4 (human) (UniProt Q9P289)
MST4 (human), sequence (Q9P289 whole entry, looked up): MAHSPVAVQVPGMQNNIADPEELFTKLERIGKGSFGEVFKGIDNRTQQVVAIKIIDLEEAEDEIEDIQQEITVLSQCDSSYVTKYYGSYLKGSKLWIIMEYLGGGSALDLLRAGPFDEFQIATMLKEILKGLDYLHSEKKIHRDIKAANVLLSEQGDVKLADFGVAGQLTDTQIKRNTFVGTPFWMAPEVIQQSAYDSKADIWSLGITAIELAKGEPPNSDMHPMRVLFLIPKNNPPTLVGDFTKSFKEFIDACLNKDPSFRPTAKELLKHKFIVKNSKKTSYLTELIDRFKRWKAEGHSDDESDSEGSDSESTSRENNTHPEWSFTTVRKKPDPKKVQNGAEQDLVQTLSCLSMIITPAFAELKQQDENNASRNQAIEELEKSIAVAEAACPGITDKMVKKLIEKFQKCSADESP

[7] = target: MAPK10 (human) (UniProt P53779)
[8] = target: CAMKK2 (human) (UniProt Q96RR4)
[9] = target: MINK1 (human) (UniProt Q8N4C8)
[10] = target: PIM2 (human) (UniProt Q9P1W9)
[11] = target: CDK2 CCNA2 (human) (UniProt P20248+P24941)
[12] = target: RIPK2 (human) (UniProt O43353)
[13] = target: CaMK1 (human) (UniProt Q14012)
[14] = target: CSNK2A1 (human) (UniProt P68400)
CSNK2A1 (human), sequence (P68400 whole entry, looked up): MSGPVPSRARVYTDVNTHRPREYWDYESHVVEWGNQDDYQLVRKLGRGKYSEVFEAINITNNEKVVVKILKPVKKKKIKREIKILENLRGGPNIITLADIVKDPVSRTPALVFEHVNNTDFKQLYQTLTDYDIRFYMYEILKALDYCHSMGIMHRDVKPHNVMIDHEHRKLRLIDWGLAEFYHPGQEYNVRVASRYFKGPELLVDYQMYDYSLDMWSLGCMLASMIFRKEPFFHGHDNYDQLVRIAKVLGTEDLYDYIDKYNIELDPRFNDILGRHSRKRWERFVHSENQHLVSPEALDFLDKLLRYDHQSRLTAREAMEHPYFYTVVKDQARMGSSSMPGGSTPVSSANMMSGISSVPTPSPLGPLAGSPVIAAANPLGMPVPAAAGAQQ

[15] = target: MARK3 (human) (UniProt P27448)
[16] = test system: LCK (mouse); conditions: accession and sequence are those of the human protein
[17] = target: EPHB3 (human) (UniProt P54753)
EPHB3 (human), sequence (P54753 whole entry, looked up): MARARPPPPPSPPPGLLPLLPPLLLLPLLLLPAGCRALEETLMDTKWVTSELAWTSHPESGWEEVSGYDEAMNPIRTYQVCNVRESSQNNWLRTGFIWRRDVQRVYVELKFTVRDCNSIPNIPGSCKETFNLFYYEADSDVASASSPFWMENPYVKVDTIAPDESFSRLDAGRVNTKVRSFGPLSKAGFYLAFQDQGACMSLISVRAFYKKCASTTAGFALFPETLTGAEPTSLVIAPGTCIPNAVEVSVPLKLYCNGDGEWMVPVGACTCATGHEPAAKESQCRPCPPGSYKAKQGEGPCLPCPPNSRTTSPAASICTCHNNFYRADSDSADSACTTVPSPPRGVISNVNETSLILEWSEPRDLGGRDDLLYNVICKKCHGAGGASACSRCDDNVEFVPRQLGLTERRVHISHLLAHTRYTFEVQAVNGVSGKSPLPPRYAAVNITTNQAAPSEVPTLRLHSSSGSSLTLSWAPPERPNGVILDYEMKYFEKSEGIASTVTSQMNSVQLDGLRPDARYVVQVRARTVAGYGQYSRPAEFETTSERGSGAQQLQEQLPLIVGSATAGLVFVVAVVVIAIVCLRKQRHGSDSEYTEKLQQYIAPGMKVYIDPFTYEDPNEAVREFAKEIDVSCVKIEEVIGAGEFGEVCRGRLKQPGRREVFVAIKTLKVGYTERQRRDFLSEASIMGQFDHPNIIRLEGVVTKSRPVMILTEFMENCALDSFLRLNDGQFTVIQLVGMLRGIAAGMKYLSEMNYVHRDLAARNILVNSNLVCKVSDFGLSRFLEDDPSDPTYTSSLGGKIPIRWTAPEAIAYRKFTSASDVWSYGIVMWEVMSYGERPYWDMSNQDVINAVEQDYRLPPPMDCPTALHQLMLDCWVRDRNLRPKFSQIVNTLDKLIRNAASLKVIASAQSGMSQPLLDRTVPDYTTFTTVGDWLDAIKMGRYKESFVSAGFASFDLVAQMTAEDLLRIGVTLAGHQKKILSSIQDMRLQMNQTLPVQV

[18] = target: PRKACA (human) (UniProt P17612)
[19] = target: SYK (human) (UniProt P43405)
[20] = target: NUAK1 (human) (UniProt O60285)
[21] = target: PHKG1 (human) (UniProt Q16816)
PHKG1 (human), sequence (Q16816 whole entry, looked up): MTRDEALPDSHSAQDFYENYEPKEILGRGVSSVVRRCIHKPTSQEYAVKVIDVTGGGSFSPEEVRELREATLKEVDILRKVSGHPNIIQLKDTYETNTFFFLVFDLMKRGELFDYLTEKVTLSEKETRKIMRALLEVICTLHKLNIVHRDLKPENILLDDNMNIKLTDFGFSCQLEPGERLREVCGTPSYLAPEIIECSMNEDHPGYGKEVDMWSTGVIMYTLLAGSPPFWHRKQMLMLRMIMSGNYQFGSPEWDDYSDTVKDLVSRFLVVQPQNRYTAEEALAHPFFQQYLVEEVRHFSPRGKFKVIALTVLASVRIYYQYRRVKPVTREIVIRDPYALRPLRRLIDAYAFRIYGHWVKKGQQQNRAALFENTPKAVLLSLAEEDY

[22] = target: MAP3K9 (human) (UniProt P80192)
[23] = target: MARK4 (human) (UniProt Q96L34)
[24] = target: MAP3K11 (human) (UniProt Q16584)
[25] = target: DYRK1A (human) (UniProt Q13627)
[26] = target: NTRK1 (human) (UniProt P04629)
[27] = target: INSR (human) (UniProt P06213)
INSR (human), sequence (P06213 whole entry, looked up): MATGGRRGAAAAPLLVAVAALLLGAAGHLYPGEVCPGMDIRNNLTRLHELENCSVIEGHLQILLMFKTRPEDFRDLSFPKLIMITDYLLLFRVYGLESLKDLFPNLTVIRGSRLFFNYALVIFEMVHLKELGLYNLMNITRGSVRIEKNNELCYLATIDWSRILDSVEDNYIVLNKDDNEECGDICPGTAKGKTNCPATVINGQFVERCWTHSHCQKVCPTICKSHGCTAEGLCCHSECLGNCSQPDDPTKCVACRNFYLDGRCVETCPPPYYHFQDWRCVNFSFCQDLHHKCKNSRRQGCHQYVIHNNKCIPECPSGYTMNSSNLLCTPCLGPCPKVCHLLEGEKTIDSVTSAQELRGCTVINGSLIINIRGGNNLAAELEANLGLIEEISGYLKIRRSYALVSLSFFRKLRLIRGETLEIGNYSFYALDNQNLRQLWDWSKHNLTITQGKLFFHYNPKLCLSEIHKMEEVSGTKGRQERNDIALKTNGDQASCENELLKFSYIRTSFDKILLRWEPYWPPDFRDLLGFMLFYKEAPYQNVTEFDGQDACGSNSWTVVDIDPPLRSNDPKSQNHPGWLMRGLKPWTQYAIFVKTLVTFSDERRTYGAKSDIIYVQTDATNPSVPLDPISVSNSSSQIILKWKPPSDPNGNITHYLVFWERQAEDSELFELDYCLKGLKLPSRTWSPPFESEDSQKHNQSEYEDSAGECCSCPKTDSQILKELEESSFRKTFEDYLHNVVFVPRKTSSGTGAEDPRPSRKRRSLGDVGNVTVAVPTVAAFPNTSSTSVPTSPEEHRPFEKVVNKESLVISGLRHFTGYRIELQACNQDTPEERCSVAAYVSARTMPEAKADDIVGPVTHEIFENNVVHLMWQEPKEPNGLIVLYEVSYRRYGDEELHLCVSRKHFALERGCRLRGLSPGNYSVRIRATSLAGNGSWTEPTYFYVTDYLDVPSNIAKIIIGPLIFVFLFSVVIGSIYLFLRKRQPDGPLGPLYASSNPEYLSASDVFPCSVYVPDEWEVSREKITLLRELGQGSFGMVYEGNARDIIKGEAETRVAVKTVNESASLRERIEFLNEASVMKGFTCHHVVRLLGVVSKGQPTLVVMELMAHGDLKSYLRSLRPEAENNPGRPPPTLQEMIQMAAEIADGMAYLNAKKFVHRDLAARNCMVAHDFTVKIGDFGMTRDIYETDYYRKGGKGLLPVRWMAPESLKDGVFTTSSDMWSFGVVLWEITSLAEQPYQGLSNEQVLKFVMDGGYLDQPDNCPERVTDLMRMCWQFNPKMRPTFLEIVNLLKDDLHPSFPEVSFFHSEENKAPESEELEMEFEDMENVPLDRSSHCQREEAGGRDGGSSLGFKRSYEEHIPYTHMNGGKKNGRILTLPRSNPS

[28] = target: IGF1R (human) (UniProt P08069)
[29] = target: MAP2K1 (human) (UniProt Q02750)
[30] = target: AURKB (human) (UniProt Q96GD4)
AURKB (human), sequence (Q96GD4 whole entry, looked up): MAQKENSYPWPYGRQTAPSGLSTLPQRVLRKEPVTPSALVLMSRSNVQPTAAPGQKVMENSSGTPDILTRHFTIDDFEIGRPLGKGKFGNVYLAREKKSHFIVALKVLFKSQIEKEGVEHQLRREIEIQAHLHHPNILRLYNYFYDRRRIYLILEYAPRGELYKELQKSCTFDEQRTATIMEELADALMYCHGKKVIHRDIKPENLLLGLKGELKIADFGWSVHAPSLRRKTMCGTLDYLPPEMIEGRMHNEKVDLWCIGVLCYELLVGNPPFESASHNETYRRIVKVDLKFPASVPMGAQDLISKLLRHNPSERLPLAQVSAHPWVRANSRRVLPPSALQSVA

[31] = target: INSRR (human) (UniProt P14616)
[32] = target: JAK2 JH1 JH2 (human) (UniProt O60674)
JAK2 JH1 JH2 (human), sequence (O60674 whole entry, looked up): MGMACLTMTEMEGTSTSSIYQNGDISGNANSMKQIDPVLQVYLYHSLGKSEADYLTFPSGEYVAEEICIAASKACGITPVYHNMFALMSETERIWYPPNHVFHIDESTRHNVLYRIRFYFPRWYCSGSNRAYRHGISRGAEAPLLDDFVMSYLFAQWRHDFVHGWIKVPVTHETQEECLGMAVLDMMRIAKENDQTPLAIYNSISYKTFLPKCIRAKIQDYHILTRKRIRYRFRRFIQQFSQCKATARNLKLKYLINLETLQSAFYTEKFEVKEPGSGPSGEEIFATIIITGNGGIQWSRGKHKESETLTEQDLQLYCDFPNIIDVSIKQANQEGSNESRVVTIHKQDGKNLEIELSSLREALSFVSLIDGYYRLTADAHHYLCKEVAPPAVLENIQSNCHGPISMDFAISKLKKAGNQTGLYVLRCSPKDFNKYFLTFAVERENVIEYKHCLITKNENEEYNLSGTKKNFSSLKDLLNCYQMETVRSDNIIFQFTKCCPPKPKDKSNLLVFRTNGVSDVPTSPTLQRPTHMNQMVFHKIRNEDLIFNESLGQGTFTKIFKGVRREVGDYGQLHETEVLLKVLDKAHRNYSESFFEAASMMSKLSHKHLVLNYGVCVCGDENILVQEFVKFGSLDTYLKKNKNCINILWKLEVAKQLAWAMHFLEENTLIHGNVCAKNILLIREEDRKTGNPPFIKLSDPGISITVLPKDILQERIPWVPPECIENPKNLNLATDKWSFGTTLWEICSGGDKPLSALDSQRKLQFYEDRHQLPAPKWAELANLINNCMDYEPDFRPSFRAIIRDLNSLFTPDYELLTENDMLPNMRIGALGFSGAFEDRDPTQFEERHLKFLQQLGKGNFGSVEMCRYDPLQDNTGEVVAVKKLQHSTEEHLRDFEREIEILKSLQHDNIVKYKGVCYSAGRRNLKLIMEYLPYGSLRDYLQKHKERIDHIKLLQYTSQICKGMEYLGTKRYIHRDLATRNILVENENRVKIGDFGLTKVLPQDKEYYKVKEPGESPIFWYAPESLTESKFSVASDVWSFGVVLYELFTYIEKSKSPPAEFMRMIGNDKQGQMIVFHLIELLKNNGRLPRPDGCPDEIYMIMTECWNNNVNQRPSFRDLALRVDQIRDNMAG

[33] = target: YES1 (human) (UniProt P07947)
[34] = target: MKNK1 (human) (UniProt Q9BUB5)
[35] = test system: AKT2 (human), P31751 [S474D]
[36] = target: SRC (human) (UniProt P12931)

residual activity ([1]; compound 10.0 µM): 96% | residual activity ([1]; compound 50.0 µM): 67% | residual activity ([1]; compound 100.0 µM): 28% | residual activity ([2]; compound 10.0 µM): 69% | residual activity ([2]; compound 50.0 µM): 98% | residual activity ([2]; compound 100.0 µM): 43% | residual activity ([3]; compound 10.0 µM): 52% | residual activity ([3]; compound 50.0 µM): 38% | residual activity ([3]; compound 100.0 µM): 41% | residual activity ([4]; compound 10.0 µM): 135% | residual activity ([4]; compound 50.0 µM): 67% | residual activity ([4]; compound 100.0 µM): 62% | residual activity ([5]; compound 10.0 µM): 107% | residual activity ([5]; compound 50.0 µM): 116% | residual activity ([5]; compound 100.0 µM): 124% | residual activity ([6]; compound 10.0 µM): 74% | residual activity ([6]; compound 50.0 µM): 57% | residual activity ([6]; compound 100.0 µM): 14% | residual activity ([7]; compound 10.0 µM): 75% | residual activity ([7]; compound 50.0 µM): 70% | residual activity ([7]; compound 100.0 µM): 62% | residual activity ([8]; compound 10.0 µM): 87% | residual activity ([8]; compound 50.0 µM): 48% | residual activity ([8]; compound 100.0 µM): 78% | residual activity ([9]; compound 10.0 µM): 65% | residual activity ([9]; compound 100.0 µM): 5% | residual activity ([10]; compound 10.0 µM): 71% | residual activity ([10]; compound 50.0 µM): 17% | residual activity ([10]; compound 100.0 µM): 18% | residual activity ([11]; compound 10.0 µM): 100% | residual activity ([11]; compound 50.0 µM): 84% | residual activity ([11]; compound 100.0 µM): 121% | residual activity ([12]; compound 10.0 µM): 110% | residual activity ([12]; compound 100.0 µM): 139% | residual activity ([13]; compound 10.0 µM): 68% | residual activity ([13]; compound 50.0 µM): 45% | residual activity ([13]; compound 100.0 µM): 7% | residual activity ([14]; compound 10.0 µM): 110% | residual activity ([14]; compound 50.0 µM): 95% | residual activity ([14]; compound 100.0 µM): 86% | residual activity ([15]; compound 10.0 µM): 78% | residual activity ([15]; compound 50.0 µM): 87% | residual activity ([15]; compound 100.0 µM): 38% | residual activity ([16]; compound 10.0 µM): 88% | residual activity ([16]; compound 50.0 µM): 58% | residual activity ([16]; compound 100.0 µM): 58% | residual activity ([17]; compound 10.0 µM): 81% | residual activity ([17]; compound 100.0 µM): 55% | residual activity ([18]; compound 10.0 µM): 89% | residual activity ([18]; compound 50.0 µM): 41% | residual activity ([18]; compound 100.0 µM): 95% | residual activity ([19]; compound 10.0 µM): 106% | residual activity ([19]; compound 50.0 µM): 36% | residual activity ([19]; compound 100.0 µM): 42% | residual activity ([20]; compound 10.0 µM): 61% | residual activity ([20]; compound 100.0 µM): 10% | residual activity ([21]; compound 10.0 µM): 96% | residual activity ([21]; compound 50.0 µM): 65% | residual activity ([21]; compound 100.0 µM): 73% | residual activity ([22]; compound 10.0 µM): 59% | residual activity ([22]; compound 100.0 µM): 18% | residual activity ([23]; compound 10.0 µM): 92% | residual activity ([23]; compound 100.0 µM): 45% | residual activity ([24]; compound 10.0 µM): 43% | residual activity ([24]; compound 100.0 µM): 4% | residual activity ([25]; compound 10.0 µM): 75% | residual activity ([25]; compound 50.0 µM): 60% | residual activity ([25]; compound 100.0 µM): 26% | residual activity ([26]; compound 10.0 µM): 69% | residual activity ([26]; compound 100.0 µM): 28% | residual activity ([27]; compound 10.0 µM): 103% | residual activity ([27]; compound 100.0 µM): 69% | residual activity ([28]; compound 10.0 µM): 94% | residual activity ([28]; compound 100.0 µM): 65% | residual activity ([29]; compound 10.0 µM): 79% | residual activity ([29]; compound 50.0 µM): 27% | residual activity ([29]; compound 100.0 µM): 29% | residual activity ([30]; compound 10.0 µM): 53% | residual activity ([30]; compound 50.0 µM): 25% | residual activity ([30]; compound 100.0 µM): 22% | residual activity ([31]; compound 10.0 µM): 88% | residual activity ([31]; compound 50.0 µM): 90% | residual activity ([31]; compound 100.0 µM): 51% | residual activity ([32]; compound 10.0 µM): 83% | residual activity ([32]; compound 100.0 µM): 32% | residual activity ([33]; compound 10.0 µM): 96% | residual activity ([33]; compound 50.0 µM): 13% | residual activity ([33]; compound 100.0 µM): 16% | residual activity ([34]; compound 10.0 µM): 104% | residual activity ([34]; compound 50.0 µM): 66% | residual activity ([34]; compound 100.0 µM): 93% | residual activity ([35]; compound 10.0 µM): 56% | residual activity ([35]; compound 50.0 µM): 37% | residual activity ([35]; compound 100.0 µM): 11% | residual activity ([36]; compound 10.0 µM): 44% | residual activity ([36]; compound 50.0 µM): 65% | residual activity ([36]; compound 100.0 µM): 10%
Compound: N#Cc1c(O)c2c(-c3ccc(-c4ccccc4O)cc3)csc2[nH]c1=O

residual activity ([1]; compound 1.0 µM): 101% | residual activity ([1]; compound 10.0 µM): 86% | residual activity ([2]; compound 1.0 µM): 58% | residual activity ([2]; compound 10.0 µM): 25% | residual activity ([3]; compound 1.0 µM): 85% | residual activity ([3]; compound 10.0 µM): 42% | residual activity ([4]; compound 10.0 µM): 70% | residual activity ([5]; compound 1.0 µM): 97% | residual activity ([6]; compound 1.0 µM): 89% | residual activity ([6]; compound 10.0 µM): 87% | residual activity ([7]; compound 1.0 µM): 80% | residual activity ([7]; compound 10.0 µM): 48% | residual activity ([8]; compound 1.0 µM): 40% | residual activity ([8]; compound 10.0 µM): 10% | residual activity ([9]; compound 1.0 µM): 124% | residual activity ([9]; compound 10.0 µM): 109% | residual activity ([10]; compound 1.0 µM): 100% | residual activity ([10]; compound 10.0 µM): 107% | residual activity ([11]; compound 1.0 µM): 94% | residual activity ([11]; compound 10.0 µM): 72% | residual activity ([12]; compound 1.0 µM): 94% | residual activity ([12]; compound 10.0 µM): 79% | residual activity ([13]; compound 1.0 µM): 92% | residual activity ([13]; compound 10.0 µM): 51% | residual activity ([14]; compound 1.0 µM): 96% | residual activity ([14]; compound 10.0 µM): 74% | residual activity ([15]; compound 1.0 µM): 91% | residual activity ([15]; compound 10.0 µM): 61% | residual activity ([16]; compound 10.0 µM): 102% | residual activity ([17]; compound 1.0 µM): 91% | residual activity ([17]; compound 10.0 µM): 105% | residual activity ([18]; compound 1.0 µM): 102% | residual activity ([19]; compound 10.0 µM): 44% | residual activity ([20]; compound 1.0 µM): 41% | residual activity ([20]; compound 10.0 µM): 9% | residual activity ([21]; compound 1.0 µM): 45% | residual activity ([21]; compound 10.0 µM): 8% | residual activity ([22]; compound 1.0 µM): 39% | residual activity ([22]; compound 10.0 µM): 7% | residual activity ([23]; compound 1.0 µM): 95% | residual activity ([23]; compound 10.0 µM): 52% | residual activity ([24]; compound 1.0 µM): 35% | residual activity ([24]; compound 10.0 µM): 9% | residual activity ([25]; compound 1.0 µM): 78% | residual activity ([25]; compound 10.0 µM): 38% | residual activity ([26]; compound 1.0 µM): 70% | residual activity ([26]; compound 10.0 µM): 54% | residual activity ([27]; compound 1.0 µM): 50% | residual activity ([27]; compound 10.0 µM): 3% | residual activity ([28]; compound 1.0 µM): 35% | residual activity ([28]; compound 10.0 µM): 8% | residual activity ([29]; compound 1.0 µM): 95% | residual activity ([29]; compound 10.0 µM): 81% | residual activity ([30]; compound 1.0 µM): 68% | residual activity ([30]; compound 10.0 µM): 24% | residual activity ([31]; compound 1.0 µM): 84% | residual activity ([31]; compound 10.0 µM): 67% | residual activity ([32]; compound 1.0 µM): 79% | residual activity ([32]; compound 10.0 µM): 52% | residual activity ([33]; compound 1.0 µM): 89% | residual activity ([33]; compound 10.0 µM): 110% | residual activity ([34]; compound 1.0 µM): 74% | residual activity ([34]; compound 10.0 µM): 26% | residual activity ([35]; compound 1.0 µM): 99% | residual activity ([35]; compound 10.0 µM): 98% | residual activity ([36]; compound 1.0 µM): 107% | residual activity ([36]; compound 10.0 µM): 81%
Compound: COc1cc(C(=O)N2CCOCC2)c(F)cc1Nc1ncc(C(F)(F)F)c(NC2CC2)n1
